#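 Method: 48-hour compound exposure of cells in 96-well plates, five concentrations, linear interpolation of endpoints. GI50 marks 50% less growth.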 Activity calls are given as the source filed them. Rule as the data show it: active = GI50 up to about 1.1 µM and inactive = higher.
# How the values were obtained:
# Experiment in all cases: NCI tumour cell line growth inhibition, 48 h
# SK-MEL-28 = tested on: SK-MEL-28
# HL-60 = tested on: HL-60
# SF-268 = tested on: SF-268
# UACC-257 = tested on: UACC-257
# MOLT-4 = tested on: MOLT-4
# A549 = tested on: A549
# OVCAR-3 = tested on: OVCAR-3
# SNB-75 = tested on: SNB-75
# SK-OV-3 = tested on: SK-OV-3
# HCT-15 = tested on: HCT-15
# SN12C = tested on: SN12C
# KM12 = tested on: KM12
# SNB-78 = tested on: SNB-78
# NCI-H460 = tested on: NCI-H460
# NCI-H23 = tested on: NCI-H23
# HOP-62 = tested on: HOP-62
# CAKI-1 = tested on: CAKI-1
# SK-MEL-2 = tested on: SK-MEL-2
# MCF7 = tested on: MCF7
# NCI/ADR-RES = tested on: NCI/ADR-RES
# HOP-92 = tested on: HOP-92
# K562 = tested on: K562
# SNB-19 = tested on: SNB-19
# EKVX = tested on: EKVX
# SF-295 = tested on: SF-295
# A498 = tested on: A498
# HT-29 = tested on: HT-29
# DMS-114 = tested on: DMS-114
# M19-MEL = tested on: M19-MEL
# NCI-H226 = tested on: NCI-H226
# LOX IMVI = tested on: LOX IMVI
# OVCAR-4 = tested on: OVCAR-4
# Malme-3M = tested on: Malme-3M
# CCRF-CEM = tested on: CCRF-CEM
# XF498 = tested on: XF498
# OVCAR-5 = tested on: OVCAR-5
# RPMI-8226 = tested on: RPMI-8226
# HCC 2998 = tested on: HCC 2998
# SF-539 = tested on: SF-539
# HOP-18 = tested on: HOP-18
# RXF 393 = tested on: RXF 393
# HCT-116 = tested on: HCT-116
# DMS-273 = tested on: DMS-273
# U-251 = tested on: U-251
# UO-31 = tested on: UO-31
# COLO 205 = tested on: COLO 205
# UACC-62 = tested on: UACC-62
# KM-20L2 = tested on: KM-20L2
# SW-620 = tested on: SW-620
# IGROV-1 = tested on: IGROV-1
# SK-MEL-5 = tested on: SK-MEL-5
# OVCAR-8 = tested on: OVCAR-8
# DLD-1 = tested on: DLD-1
# LXFL 529 = tested on: LXFL 529
# ACHN = tested on: ACHN
# 786-0 = tested on: 786-0
# SR = tested on: SR
# TK-10 = tested on: TK-10
# NCI-H522 = tested on: NCI-H522
# M14 = tested on: M14
structure (smiles),measurement,setting,value
Cc1ccc2cc3cccc(C(=O)NCCN(C)C)c3nc2c1,GI50,SK-MEL-28,1.63 µM (inactive)
same,GI50,HL-60,0.565 µM (active)
same,GI50,SF-268,1.08 µM (active)
same,GI50,UACC-257,0.946 µM (active)
same,GI50,MOLT-4,0.321 µM (active)
same,GI50,A549,0.644 µM (active)
same,GI50,OVCAR-3,1.36 µM (inactive)
same,GI50,SNB-75,1.33 µM (inactive)
same,GI50,SK-OV-3,1.57 µM (inactive)
same,GI50,HCT-15,0.955 µM
same,GI50,SN12C,0.893 µM (active)
same,GI50,KM12,1.54 µM (inactive)
same,GI50,SNB-78,1.37 µM (inactive)
same,GI50,NCI-H460,0.315 µM (active)
same,GI50,NCI-H23,1.25 µM (inactive)
same,GI50,HOP-62,0.923 µM (active)
same,GI50,CAKI-1,0.275 µM (active)
same,GI50,SK-MEL-2,1.87 µM (inactive)
same,GI50,MCF7,0.681 µM (active)
same,GI50,NCI/ADR-RES,0.771 µM (active)
same,GI50,HOP-92,0.376 µM (active)
same,GI50,K562,0.69 µM (active)
same,GI50,SNB-19,0.925 µM (active)
same,GI50,EKVX,1.14 µM (inactive)
same,GI50,SF-295,0.832 µM (active)
same,GI50,A498,0.419 µM (active)
same,GI50,HT-29,0.449 µM (active)
same,GI50,DMS-114,0.929 µM (active)
same,GI50,M19-MEL,0.977 µM (active)
same,GI50,NCI-H226,0.927 µM (active)
same,GI50,LOX IMVI,0.818 µM (active)
same,GI50,OVCAR-4,0.998 µM (active)
same,GI50,Malme-3M,1.06 µM (active)
same,GI50,CCRF-CEM,0.679 µM (active)
same,GI50,XF498,0.977 µM (active)
same,GI50,OVCAR-5,1.47 µM (inactive)
same,GI50,RPMI-8226,0.807 µM (active)
same,GI50,HCC 2998,1.49 µM (inactive)
same,GI50,SF-539,1.38 µM (inactive)
same,GI50,HOP-18,2.23 µM (inactive)
same,GI50,RXF 393,1.01 µM (active)
same,GI50,HCT-116,0.459 µM (active)
same,GI50,DMS-273,0.647 µM (active)
same,GI50,U-251,1.66 µM (inactive)
same,GI50,UO-31,0.839 µM (active)
same,GI50,COLO 205,0.483 µM (active)
same,GI50,UACC-62,1.37 µM (inactive)
same,GI50,KM-20L2,0.733 µM (active)
same,GI50,SW-620,0.514 µM (active)
same,GI50,IGROV-1,1.42 µM (inactive)
same,GI50,SK-MEL-5,1.32 µM (inactive)
same,GI50,OVCAR-8,0.631 µM (active)
same,GI50,DLD-1,0.935 µM (active)
CC(=O)O[C@H]1C(N(C)C(=O)c2ccccc2)CC[C@]2(C)C3CC[C@@]4(C)C(CC(O)[C@@H]4C(C)N(C)C)[C@@H]3CCC12 (some centres undefined),GI50,SK-MEL-28,> 100 µM (inactive)
same,GI50,HL-60,89.5 µM (inactive)
same,GI50,SF-268,> 100 µM (inactive)
same,GI50,LXFL 529,> 100 µM (inactive)
same,GI50,UACC-257,> 100 µM (inactive)
same,GI50,MOLT-4,> 100 µM (inactive)
same,GI50,ACHN,> 100 µM (inactive)
same,GI50,A549,> 100 µM (inactive)
same,GI50,OVCAR-3,> 100 µM (inactive)
same,GI50,SNB-75,> 100 µM (inactive)
same,GI50,786-0,> 100 µM (inactive)
same,GI50,SK-OV-3,> 100 µM (inactive)
same,GI50,HCT-15,> 100 µM
same,GI50,SN12C,> 100 µM (inactive)
same,GI50,KM12,> 100 µM (inactive)
same,GI50,SNB-78,> 100 µM (inactive)
same,GI50,NCI-H460,> 100 µM (inactive)
same,GI50,NCI-H23,> 100 µM (inactive)
same,GI50,HOP-62,> 100 µM (inactive)
same,GI50,CAKI-1,> 100 µM (inactive)
same,GI50,SK-MEL-2,> 100 µM (inactive)
same,GI50,HOP-92,> 100 µM (inactive)
same,GI50,K562,> 100 µM (inactive)
same,GI50,SNB-19,> 100 µM (inactive)
same,GI50,EKVX,> 100 µM (inactive)
same,GI50,SF-295,> 100 µM (inactive)
same,GI50,SR,76.9 µM (inactive)
same,GI50,A498,> 100 µM (inactive)
same,GI50,HT-29,> 100 µM (inactive)
same,GI50,DMS-114,> 100 µM (inactive)
same,GI50,TK-10,> 100 µM (inactive)
same,GI50,M19-MEL,> 100 µM (inactive)
same,GI50,NCI-H226,> 100 µM (inactive)
same,GI50,LOX IMVI,> 100 µM (inactive)
same,GI50,OVCAR-4,> 100 µM (inactive)
same,GI50,NCI-H522,> 100 µM (inactive)
same,GI50,Malme-3M,> 100 µM (inactive)
same,GI50,CCRF-CEM,> 100 µM (inactive)
same,GI50,XF498,> 100 µM (inactive)
same,GI50,OVCAR-5,> 100 µM (inactive)
same,GI50,RPMI-8226,> 100 µM (inactive)
same,GI50,HCC 2998,> 100 µM (inactive)
same,GI50,SF-539,> 100 µM (inactive)
same,GI50,HOP-18,> 100 µM (inactive)
same,GI50,HCT-116,> 100 µM (inactive)
same,GI50,DMS-273,> 100 µM (inactive)
same,GI50,U-251,> 100 µM (inactive)
same,GI50,COLO 205,> 100 µM (inactive)
same,GI50,UACC-62,> 100 µM (inactive)
same,GI50,KM-20L2,> 100 µM (inactive)
same,GI50,M14,> 100 µM (inactive)
same,GI50,SW-620,> 100 µM (inactive)
same,GI50,IGROV-1,> 100 µM (inactive)
same,GI50,SK-MEL-5,> 100 µM (inactive)
same,GI50,OVCAR-8,> 100 µM (inactive)
same,GI50,DLD-1,> 100 µM (inactive)
